The text below walks through data of article PMC8453745, “Human Mass Balance and Metabolite Profiling of [^14C]‐Pamiparib, a Poly (ADP‐Ribose) Polymerase Inhibitor, in Patients With Advanced Cancer” (Clinical Pharmacology in Drug Development, 2021).

Structures are written as SMILES.

Series [1] can be described thus: safety and tolerability in patients. The series is classed as in vivo, human. As for the experimental part: Safety and tolerability were evaluated throughout the study, and AEs were assessed from the time of obtaining informed consent to discharge from the study and follow‐up visit or early withdrawal. Scheduled safety assessments of 12‐lead electrocardiogram, physical examination, vital signs, and clinical laboratory investigations (clinical chemistry, hematology, serology, and urinalysis) occurred before administration of the study drug and at discharge and follow‐up visit.

On the set-up of series [2]: method as in data on file. Conditions: suspension in water, room temperature; ref data on file; cited from earlier work.
Series [3] can be described thus: metabolite profiling in pooled urine (radioprofiling, LC‐MS). Type of series: in vivo, human. Conditions: pooled urine. As for the experimental part: Total radioactivity concentrations of [^14C]‐pamiparib in whole blood, plasma, urine, and feces were determined by liquid scintillation counting (LSC). Radioactivity in each sample was measured for 5 minutes using a Packard Tri‐Carb liquid scintillation counter model 2100TR, 2900TR, or 3100TR (Canberra Packard, Pangbourne, Berks, Australia) with the facilities for computing quench‐corrected disintegrations per minute. Metabolite identification in plasma, urine, and feces was conducted by LC‐MS. Quantitation of the metabolites present in plasma, urine, and feces was based on the profiles of radioactivity. The limit of quantitation for radioactivity in plasma, urine, and feces was set at 1% of each chromatographic analysis (run) and 10 counts per minute (cpm) peak height; therefore, radioactive peaks that were <1% of the total run or <10 cpm peak height were reported as not detected. In addition, pamiparib and standards were reported, regardless of the percentage of run or peak height.
Each aliquot of urine (about 1 mL, weighed) was added directly to liquid scintillant prior to LSC. For metabolite profiling, urine samples collected 0‐4, 4‐8, 8‐12, 12‐24, 24‐48, 48‐72, and 72‐96 hours postdose were pooled by individual patient to generate 0‐ to 96‐hour pooled samples including 0.2% of each sample by weight. The radioactivity in each pooled sample was determined by LSC. The total amount of urine collected was factored into the recovery calculation. […] Pooled urine samples were analyzed by LC‐MS, with eluent fractions collected at 10‐second intervals into 96‐well plates containing solid scintillant. Radioactivity in each well was determined using TopCount analysis, and radiochemical profiles were generated based on radioactivity counts.
Metabolic profiling was performed on plasma, urine, and feces samples using LC‐MS. Shimadzu/Nexera LC‐30AD pumps and Shimadzu/Prominence DGU‐20A5R degasser were used with Shimadzu/Prominence controller CBM‐20A. The high‐pressure liquid chromatograph (HPLC) was equipped with an autoinjector (Shimadzu/Nexera SIL‐30ACMP) set at 10°C and a fraction collector (Leap Technologies PAL HTC‐xt) set at 15°C. Thermo Fisher Scientific Q Exactive was the mass spectrometer system.

In another series the test system is PARP2. Also noted: method as in PMID 33264017. The following applies: read-out: PARP2 inhibition IC50; cited from earlier work.
In a further series the target is T1, CYP2D6 (Homo sapiens, UniProt P10635).
T1 construct: tissue Corning (Woburn, New York); host or cells: pooled human liver microsomes
T1 sequence (P10635 whole entry): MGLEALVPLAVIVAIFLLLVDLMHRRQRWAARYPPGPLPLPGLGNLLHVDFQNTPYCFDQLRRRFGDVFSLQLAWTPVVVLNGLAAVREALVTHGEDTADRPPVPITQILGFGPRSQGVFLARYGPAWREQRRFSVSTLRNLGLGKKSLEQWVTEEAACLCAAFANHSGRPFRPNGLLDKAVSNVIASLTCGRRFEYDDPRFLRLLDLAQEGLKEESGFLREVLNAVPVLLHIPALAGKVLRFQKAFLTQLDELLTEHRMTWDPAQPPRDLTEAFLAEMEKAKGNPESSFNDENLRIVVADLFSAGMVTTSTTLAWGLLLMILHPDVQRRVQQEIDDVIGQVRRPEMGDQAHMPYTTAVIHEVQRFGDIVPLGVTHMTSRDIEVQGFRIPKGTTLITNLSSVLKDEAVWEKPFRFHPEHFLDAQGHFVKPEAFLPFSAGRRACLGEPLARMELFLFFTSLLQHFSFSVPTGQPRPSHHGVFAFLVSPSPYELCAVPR
Put plainly: CYP450 phenotyping in HLMs with CYP2D6 inhibitor quinidine. Conditions: HLM incubation. Type of series: in vitro ADME. The protocol:
Metabolic stability in human liver microsomes (HLMs) and cytochrome P450 (CYP450) phenotyping assays were conducted in 3D BioOptima (Suzhou, China) using validated methodology, [13] to determine the intrinsic clearance and enzymes responsible for metabolism of pamiparib. HLMs for microsome stability was from BD Biosciences (Woburn, New York). For phenotyping, HLMs and recombinant P450 (rCYP) were from Corning (Woburn, New York). Pamiparib (1 μM) was incubated with pooled HLM (0.5 mg/mL), NADPH (1 mM), and MgCl2 (3 mM) terminated at 0, 5, 15, 30, 60, and 90 minutes. The intrinsic clearance was calculated as 0.693/(t1/2 × HLM concentration), where t1/2 is the half‐life of pamiparib determined in HLMs. For phenotyping in HLMs, pamiparib (1 μM) was incubated in the absence or presence of isoform‐selective inhibitors: 0.2 μM α‐naphthoflavone for CYP1A2, 2 μM clopidogrel for CYP2B6, 16 μM montelukast for CYP2C8, 10 μM sulfaphenazole for CYP2C9, 30 μM nootkatone for CYP2C19, 2 μM quinidine for CYP2D6, and 1 μM ketoconazole for CYP3A. The following isoform‐selective probe substrates served as positive controls: 40 μM phenacetin for CYP1A2, 100 μM bupropion for CYP2B6, 2 μM amodiaquine for CYP2C8, 5 μM diclofenac for CYP2C9, 40 μM S‐mephenytoin for CYP2C19, 5 μM dextromethorphan for CYP2D6, and 2 μM midazolam for CYP3A4. […] Pamiparib, M1, and M2 were analyzed by LC‐MS/MS.

Series [4] concerns Chinese hamster ovary cells. Also noted: method as in data on file. Conditions: in vitro chromosomal aberration assay, CHO cells; ref data on file; cited from earlier work.

On to `C[C@]12CCCN1CC1=NNC(=O)c3cc(F)cc4[nH]c2c1c34` [Pamiparib], for which, in series [1] (4 patients), the “patients with TEAEs” value is listed as 100% and the “severity of all TEAEs” value is reported as “mild (CTCAE grade 1)”. The “TEAEs considered related to [^14C]‐pamiparib, percent of events” value in series [1] (in 2 patients) is recorded as 31.3%. For the same compound, in series [1] (in 4 patients), the “TEAEs considered unrelated to [^14C]‐pamiparib, percent of events” value came to 68.8% and the “TEAEs reported (events)” value was 16. The tolerability result in series [1] (single dose 60 mg [^14C]‐pamiparib, 4 patients) was “well tolerated”. The “deaths or serious AEs” value in series [1] (single dose 60 mg, 4 patients) is recorded as “no deaths or serious AEs”. In addition, the “chemical stability and radiopurity of the suspension established for” value in series [2] is 48 h. In series [3], the “dose quantified in urine” value is on record as 52.5 % of the dose. Moreover, the IC50 (in general, the concentration at which inhibition is half-maximal) with PARP2 is 0.9 nM. Besides, on CYP2D6, the “effect of CYP2D6 inhibitor quinidine on pamiparib metabolism” value was “minimal effect”. In series [4], the clastogenic activity entry is “clastogenic activity”.
